Measurements: BindingDB's records for PubMed 39914143 (COMSATS University Islamabad)
pIC50: −log10 of the molar value.

Molecular target: T1, Amine oxidase [flavin-containing] B (Homo sapiens, UniProt P27338)
T1 sequence (P27338 whole entry): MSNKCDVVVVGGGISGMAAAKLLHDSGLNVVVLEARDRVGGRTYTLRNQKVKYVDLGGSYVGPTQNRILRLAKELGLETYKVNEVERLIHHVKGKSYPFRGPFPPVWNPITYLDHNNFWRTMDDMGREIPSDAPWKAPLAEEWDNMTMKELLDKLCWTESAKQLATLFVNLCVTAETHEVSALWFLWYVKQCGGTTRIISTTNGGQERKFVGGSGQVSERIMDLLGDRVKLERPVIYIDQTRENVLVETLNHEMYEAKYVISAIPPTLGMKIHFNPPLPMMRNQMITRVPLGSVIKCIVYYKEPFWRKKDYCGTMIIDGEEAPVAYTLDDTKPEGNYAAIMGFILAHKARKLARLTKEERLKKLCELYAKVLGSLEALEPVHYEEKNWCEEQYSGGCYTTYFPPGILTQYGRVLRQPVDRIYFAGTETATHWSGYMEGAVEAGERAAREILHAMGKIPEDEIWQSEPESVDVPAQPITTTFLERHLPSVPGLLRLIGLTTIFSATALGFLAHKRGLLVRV
Experiment: Inhibition of MAO-B (unknown origin)

SMILES: CN(C)CCN1CCN(Cc2ccc(C(=O)Nc3nc4ccccc4s3)cc2)CC1
- pIC50: 7.40
